This is an account of results in ChEMBL document CHEMBL5465560, “Selectivity Literature for EUbOPEN Chemogenomic Library” (2024).

The target of assay [1] is Serine/threonine-protein kinase PLK3 (Homo sapiens, UniProt Q9H4B4). The assay is described as follows: Selectivity interaction (Kinase panel (Z-LYTE Assay)) EUB0001632a PLK3. Particulars: at 10 µM.
Assay [2] addresses T1, Dual specificity protein kinase CLK2 (Homo sapiens, UniProt P49760). The assay is described as follows: Selectivity interaction (KinomeScan (DiscoverX)) EUB0001619a CLK2. Particulars: at 1 µM.
For assay [3], the target named is T2, cGMP-dependent protein kinase 1 (Homo sapiens) (UniProt Q13976).
T2 sequence (whole entry): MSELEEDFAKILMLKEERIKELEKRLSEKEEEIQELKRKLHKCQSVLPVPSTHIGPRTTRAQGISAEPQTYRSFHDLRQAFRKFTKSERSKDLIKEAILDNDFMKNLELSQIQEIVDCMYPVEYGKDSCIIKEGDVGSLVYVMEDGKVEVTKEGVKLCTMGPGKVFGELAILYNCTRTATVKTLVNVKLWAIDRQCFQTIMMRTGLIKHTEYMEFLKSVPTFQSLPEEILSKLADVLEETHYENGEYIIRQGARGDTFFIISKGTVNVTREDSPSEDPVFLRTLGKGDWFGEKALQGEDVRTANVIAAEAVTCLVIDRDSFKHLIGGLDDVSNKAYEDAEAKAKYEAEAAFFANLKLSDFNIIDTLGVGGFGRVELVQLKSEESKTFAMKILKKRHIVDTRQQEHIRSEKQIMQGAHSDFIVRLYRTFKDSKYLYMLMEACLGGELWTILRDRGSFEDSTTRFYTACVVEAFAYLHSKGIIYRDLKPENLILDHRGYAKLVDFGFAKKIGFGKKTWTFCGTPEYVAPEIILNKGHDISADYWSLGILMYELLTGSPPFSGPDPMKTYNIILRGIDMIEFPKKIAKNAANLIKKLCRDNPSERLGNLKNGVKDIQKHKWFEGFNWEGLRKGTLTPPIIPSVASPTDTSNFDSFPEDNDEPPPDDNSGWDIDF
Nature of the assay: Selectivity interaction (KinomeScan (DiscoverX)) EUB0001619a PRKG1. Particulars: at 1 µM.

For assay [4], the target named is Tyrosine-protein kinase SYK (Homo sapiens, UniProt P43405). Nature of the assay: Selectivity interaction (ActivX KiNativ screen (ex vivo kinase selectivity in human PBMCs)) EUB0001619a SYK. Format: cell-based. Particulars: PBMC, at 1 µM.
Assay [5] has as its target DNA-dependent protein kinase catalytic subunit (Homo sapiens) (UniProt P78527). The assay is described as follows: Selectivity interaction (ActivX KiNativ screen (ex vivo kinase selectivity in human PBMCs)) EUB0001619a PRKDC. Particulars: PBMC, at 1 µM. Format: cell-based.
Assay [6] deals with Tyrosine-protein kinase Fyn (Homo sapiens) (UniProt P06241). The assay is described as follows: Selectivity interaction (KinomeScan (DiscoverX)) EUB0000607a FYN. Particulars: at 10 µM.
Assay [7] deals with Mitogen-activated protein kinase kinase kinase 1 (Homo sapiens, UniProt Q13233). Particulars: at 10 µM.
Chain of Mitogen-activated protein kinase kinase kinase 1 (Q13233 whole entry): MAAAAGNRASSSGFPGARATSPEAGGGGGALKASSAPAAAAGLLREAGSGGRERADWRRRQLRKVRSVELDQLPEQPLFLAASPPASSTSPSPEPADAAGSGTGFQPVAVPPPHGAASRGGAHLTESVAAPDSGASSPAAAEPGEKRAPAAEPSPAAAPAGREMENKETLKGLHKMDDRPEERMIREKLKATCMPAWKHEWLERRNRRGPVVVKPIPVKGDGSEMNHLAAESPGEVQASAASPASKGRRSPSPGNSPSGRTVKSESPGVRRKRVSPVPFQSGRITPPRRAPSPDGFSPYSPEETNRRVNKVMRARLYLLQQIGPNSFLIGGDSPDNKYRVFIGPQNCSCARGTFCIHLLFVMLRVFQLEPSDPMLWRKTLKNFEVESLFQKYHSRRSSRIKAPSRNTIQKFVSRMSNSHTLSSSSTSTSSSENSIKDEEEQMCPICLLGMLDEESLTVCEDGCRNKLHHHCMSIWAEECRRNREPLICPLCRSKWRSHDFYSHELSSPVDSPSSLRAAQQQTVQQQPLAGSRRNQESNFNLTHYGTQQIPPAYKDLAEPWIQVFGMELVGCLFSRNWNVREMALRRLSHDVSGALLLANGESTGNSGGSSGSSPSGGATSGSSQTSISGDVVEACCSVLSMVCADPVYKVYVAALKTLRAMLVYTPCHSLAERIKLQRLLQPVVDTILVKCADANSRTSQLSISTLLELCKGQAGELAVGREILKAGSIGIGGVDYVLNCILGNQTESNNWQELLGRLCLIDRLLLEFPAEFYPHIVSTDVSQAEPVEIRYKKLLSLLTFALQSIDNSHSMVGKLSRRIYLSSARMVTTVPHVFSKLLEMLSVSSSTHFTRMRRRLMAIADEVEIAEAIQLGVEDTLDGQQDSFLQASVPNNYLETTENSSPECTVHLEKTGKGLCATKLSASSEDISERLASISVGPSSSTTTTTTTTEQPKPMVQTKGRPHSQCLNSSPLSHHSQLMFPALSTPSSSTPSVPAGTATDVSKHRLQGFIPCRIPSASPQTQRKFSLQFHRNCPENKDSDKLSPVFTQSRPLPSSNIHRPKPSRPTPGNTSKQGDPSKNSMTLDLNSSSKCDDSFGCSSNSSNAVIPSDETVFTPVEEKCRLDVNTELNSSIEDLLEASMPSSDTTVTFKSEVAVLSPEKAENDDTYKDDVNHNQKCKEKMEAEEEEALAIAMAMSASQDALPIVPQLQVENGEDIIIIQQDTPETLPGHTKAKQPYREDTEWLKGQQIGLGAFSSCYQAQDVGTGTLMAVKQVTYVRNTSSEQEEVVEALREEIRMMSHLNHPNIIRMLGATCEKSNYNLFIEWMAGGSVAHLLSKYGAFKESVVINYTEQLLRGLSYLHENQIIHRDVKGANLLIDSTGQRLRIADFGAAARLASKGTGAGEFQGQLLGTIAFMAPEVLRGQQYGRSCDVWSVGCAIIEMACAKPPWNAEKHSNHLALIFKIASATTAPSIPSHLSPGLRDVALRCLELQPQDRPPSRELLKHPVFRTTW
In assay [8] the target is T3, Dual specificity mitogen-activated protein kinase kinase 6 (Homo sapiens) (UniProt P52564).
T3 sequence (whole entry): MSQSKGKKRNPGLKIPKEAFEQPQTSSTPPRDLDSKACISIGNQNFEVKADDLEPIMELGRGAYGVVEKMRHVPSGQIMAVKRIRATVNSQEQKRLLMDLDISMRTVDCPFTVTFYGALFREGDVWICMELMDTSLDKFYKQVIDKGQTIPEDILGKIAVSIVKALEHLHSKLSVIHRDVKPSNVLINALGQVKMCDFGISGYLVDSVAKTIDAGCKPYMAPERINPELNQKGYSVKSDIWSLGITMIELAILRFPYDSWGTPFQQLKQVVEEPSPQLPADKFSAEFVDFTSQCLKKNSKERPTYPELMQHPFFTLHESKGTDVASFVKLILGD
Nature of the assay: Selectivity interaction (Kinase panel (Invitrogen)) EUB0000639a MAP2K6. Particulars: at 200 nM.

The target in assay [9] is Serine/threonine-protein kinase WNK1 (Homo sapiens) (UniProt Q9H4A3). Nature of the assay: Selectivity interaction (ActivX KiNativ screen (kinase selectivity in THP-1 cell lysates)) EUB0000639a WNK1. Format: subcellular. Particulars: lysate, at 0.04 µM.
The target in assay [10] is Serine/threonine-protein kinase 10 (Homo sapiens) (UniProt O94804). Nature of the assay: Selectivity interaction (ActivX KiNativ screen (kinase selectivity in THP-1 cell lysates)) EUB0000639a STK10. Format: subcellular. Particulars: lysate, at 0.01 µM.
Assay [11] concerns the target Tyrosine-protein kinase HCK (Homo sapiens) (UniProt P08631). Nature of the assay: Selectivity interaction (KinomeScan (DiscoverX)) EUB0000045b HCK.
Assay [12] addresses Serine/threonine-protein kinase SIK1 (Homo sapiens) (UniProt P57059). The assay is described as follows: Selectivity interaction (KinomeScan (DiscoverX)) EUB0000045b SIK1.
Assay [13] has as its target Wee1-like protein kinase (Homo sapiens) (UniProt P30291). The assay is described as follows: Selectivity interaction (ProQinase) EUB0000171b WEE1.
Assay [14] concerns the target T1, Dual specificity protein kinase CLK2. The assay is described as follows: Selectivity interaction (Ambit KINOMEscan and KiNATiv profiling in Jurkat cells) EUB0000090b CLK2. Format: cell-based. Particulars: at 1 µM.
The target of assay [15] is Serine/threonine-protein kinase pim-1 (Homo sapiens, UniProt P11309).
Chain of Serine/threonine-protein kinase pim-1 (P11309 whole entry): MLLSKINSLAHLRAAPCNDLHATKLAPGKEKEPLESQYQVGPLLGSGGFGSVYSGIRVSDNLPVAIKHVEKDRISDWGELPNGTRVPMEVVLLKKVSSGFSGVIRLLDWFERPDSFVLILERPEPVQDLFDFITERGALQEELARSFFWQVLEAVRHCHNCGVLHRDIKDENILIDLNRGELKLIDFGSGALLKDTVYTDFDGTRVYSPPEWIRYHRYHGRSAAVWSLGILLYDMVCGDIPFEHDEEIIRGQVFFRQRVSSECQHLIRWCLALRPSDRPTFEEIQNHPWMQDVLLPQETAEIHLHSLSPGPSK
A further assay deals with D(3) dopamine receptor (Homo sapiens, UniProt P35462). The assay is described as follows: Selectivity interaction (Dopamine D3 receptor assay, human recombinant ) EUB0000877a DRD3.
The target of assay [16] is Ribosomal protein S6 kinase alpha-6 (Homo sapiens, UniProt Q9UK32). The assay is described as follows: Selectivity interaction (KinomeScan (DiscoverX)) EUB0000655a RPS6KA6. Particulars: at 10 µM.
Assay [17] relates to Epidermal growth factor receptor (Homo sapiens), P00533 [UNDEFINED MUTATION]. The assay is described as follows: (§1) Selectivity interaction (KinomeScan (DiscoverX)) EUB0000618a EGFR. Particulars: at 10 µM.
In assay [18] the test system is Epidermal growth factor receptor (Homo sapiens), P00533 [T790M]. Described as §1. Particulars: at 10 µM.
Assay [19] has as its system Epidermal growth factor receptor (Homo sapiens), P00533 [L858R,T790M]. The description is as §1. Particulars: at 10 µM.
Assay [20] deals with Epidermal growth factor receptor (Homo sapiens), P00533 [G719C]. Described as §1. Particulars: at 10 µM.
For assay [21], the system named is Epidermal growth factor receptor (Homo sapiens), P00533 [L858R]. The assay is described as §1. Particulars: at 10 µM.
Assay [22] has as its target Mitogen-activated protein kinase kinase kinase 4 (Homo sapiens) (UniProt Q9Y6R4). The assay is described as follows: Selectivity interaction (KinomeScan (DiscoverX)) EUB0000618a MAP3K4. Particulars: at 10 µM.
Assay [23] has as its target Protein kinase C theta type (Homo sapiens, UniProt Q04759). The assay is described as follows: Selectivity interaction (KinomeScan (DiscoverX)) EUB0000092b PRKCQ. Particulars: at 10 µM.
The next assay deals with Histamine H1 receptor (Homo sapiens, UniProt P35367). The assay is described as follows: Selectivity interaction (Panel of non-epigenetic targets (kinases, GPCRs, ion channels, and transporters, Eurofins) ) EUB0000271b HRH1. Particulars: at 1 µM.
Chain of Histamine H1 receptor (P35367 whole entry): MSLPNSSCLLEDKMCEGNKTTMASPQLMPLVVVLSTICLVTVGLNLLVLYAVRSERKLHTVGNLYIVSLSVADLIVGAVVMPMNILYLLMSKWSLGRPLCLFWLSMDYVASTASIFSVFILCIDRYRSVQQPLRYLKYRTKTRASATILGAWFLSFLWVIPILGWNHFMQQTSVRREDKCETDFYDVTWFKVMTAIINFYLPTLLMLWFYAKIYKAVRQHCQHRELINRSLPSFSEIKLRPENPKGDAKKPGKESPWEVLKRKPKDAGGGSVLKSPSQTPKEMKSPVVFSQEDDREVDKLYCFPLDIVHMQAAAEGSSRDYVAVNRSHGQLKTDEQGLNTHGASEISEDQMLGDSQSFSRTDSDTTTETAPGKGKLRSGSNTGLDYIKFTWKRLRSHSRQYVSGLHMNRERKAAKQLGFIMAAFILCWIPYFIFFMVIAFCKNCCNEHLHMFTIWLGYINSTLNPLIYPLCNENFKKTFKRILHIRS
In assay [24] the target is Serine/threonine-protein kinase 24 (Homo sapiens) (UniProt Q9Y6E0). Nature of the assay: Selectivity interaction (Kinase panel (KiNativ target engagement assay in Jurkat cells)) EUB0001635a STK24. It is filed as cell-based. Particulars: Selectivity number of off-targets 0.0, Selectivity number of targets 233.0, Source Knowledge https://www.sciencedirect.com/science/article/pii/S2451945619300674?via%3Dihub, at 1 µM.

Chain of Wee1-like protein kinase (Homo sapiens) (P30291 whole entry, looked up): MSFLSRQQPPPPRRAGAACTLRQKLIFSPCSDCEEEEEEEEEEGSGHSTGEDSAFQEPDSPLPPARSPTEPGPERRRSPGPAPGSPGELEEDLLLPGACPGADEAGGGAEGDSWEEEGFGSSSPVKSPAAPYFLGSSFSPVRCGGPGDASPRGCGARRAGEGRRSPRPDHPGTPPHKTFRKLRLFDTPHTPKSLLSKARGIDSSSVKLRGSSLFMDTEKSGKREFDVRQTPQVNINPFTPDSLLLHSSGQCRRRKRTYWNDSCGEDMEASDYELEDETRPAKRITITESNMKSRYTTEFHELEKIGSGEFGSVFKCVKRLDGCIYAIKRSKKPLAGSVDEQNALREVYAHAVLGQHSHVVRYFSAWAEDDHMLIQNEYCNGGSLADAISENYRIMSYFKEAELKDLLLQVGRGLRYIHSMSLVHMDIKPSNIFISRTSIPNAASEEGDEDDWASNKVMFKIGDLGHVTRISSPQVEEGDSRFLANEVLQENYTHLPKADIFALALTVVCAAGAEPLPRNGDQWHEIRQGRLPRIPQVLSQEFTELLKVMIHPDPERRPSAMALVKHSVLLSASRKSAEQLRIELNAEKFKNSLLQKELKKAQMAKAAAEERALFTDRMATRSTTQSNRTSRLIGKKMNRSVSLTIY
Chain of Serine/threonine-protein kinase SIK1 (Homo sapiens) (P57059 whole entry): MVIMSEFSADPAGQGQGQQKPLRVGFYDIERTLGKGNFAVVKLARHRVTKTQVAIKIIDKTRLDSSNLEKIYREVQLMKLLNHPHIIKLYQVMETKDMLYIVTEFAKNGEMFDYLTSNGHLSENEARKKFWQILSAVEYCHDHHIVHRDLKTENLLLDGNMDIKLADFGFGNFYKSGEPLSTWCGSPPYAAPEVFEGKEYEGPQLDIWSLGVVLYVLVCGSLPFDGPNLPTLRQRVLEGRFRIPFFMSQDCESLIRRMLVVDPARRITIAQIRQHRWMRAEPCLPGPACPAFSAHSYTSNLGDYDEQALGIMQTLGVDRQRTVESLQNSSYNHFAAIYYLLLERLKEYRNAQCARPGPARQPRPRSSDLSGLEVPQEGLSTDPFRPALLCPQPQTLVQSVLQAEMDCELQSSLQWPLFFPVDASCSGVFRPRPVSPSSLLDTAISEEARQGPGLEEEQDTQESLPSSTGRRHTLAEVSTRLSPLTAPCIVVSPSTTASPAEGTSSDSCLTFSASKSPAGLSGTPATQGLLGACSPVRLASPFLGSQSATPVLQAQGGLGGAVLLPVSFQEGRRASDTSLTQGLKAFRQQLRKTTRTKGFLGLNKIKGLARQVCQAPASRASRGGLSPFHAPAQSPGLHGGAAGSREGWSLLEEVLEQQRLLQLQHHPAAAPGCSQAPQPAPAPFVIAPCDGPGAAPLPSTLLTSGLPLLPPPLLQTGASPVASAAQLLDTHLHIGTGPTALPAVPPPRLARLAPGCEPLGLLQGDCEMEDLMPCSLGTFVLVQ
T1 sequence (P49760 whole entry, looked up): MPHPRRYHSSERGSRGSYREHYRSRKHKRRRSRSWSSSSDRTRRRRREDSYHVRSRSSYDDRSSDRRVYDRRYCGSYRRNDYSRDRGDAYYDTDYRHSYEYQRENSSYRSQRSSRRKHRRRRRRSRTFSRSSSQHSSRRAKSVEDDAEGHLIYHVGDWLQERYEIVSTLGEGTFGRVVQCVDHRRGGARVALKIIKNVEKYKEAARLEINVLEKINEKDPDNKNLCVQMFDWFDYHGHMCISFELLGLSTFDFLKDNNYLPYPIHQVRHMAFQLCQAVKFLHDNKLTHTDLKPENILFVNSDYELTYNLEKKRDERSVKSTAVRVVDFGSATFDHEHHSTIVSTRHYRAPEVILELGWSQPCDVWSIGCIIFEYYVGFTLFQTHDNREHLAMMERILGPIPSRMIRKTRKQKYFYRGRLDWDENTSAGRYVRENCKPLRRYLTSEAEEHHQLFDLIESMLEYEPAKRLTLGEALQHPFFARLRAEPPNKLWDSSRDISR
Chain of Tyrosine-protein kinase HCK (Homo sapiens) (P08631 2-526 limits assumed): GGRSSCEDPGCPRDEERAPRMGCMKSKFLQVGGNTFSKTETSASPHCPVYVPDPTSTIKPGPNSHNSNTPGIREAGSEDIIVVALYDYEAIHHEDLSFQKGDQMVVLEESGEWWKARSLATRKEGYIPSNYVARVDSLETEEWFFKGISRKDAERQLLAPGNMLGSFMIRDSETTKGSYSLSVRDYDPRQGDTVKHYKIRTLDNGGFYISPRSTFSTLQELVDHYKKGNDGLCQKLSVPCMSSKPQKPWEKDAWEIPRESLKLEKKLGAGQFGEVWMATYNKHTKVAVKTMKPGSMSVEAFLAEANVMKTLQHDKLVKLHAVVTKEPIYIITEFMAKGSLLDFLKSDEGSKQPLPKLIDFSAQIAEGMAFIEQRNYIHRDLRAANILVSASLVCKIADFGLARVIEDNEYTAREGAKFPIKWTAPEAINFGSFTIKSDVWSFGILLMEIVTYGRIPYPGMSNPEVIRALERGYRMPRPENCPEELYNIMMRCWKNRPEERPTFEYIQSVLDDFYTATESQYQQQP

In assay [1], `Cn1cc(-n2cnc3c(NCc4nc5cc(Cl)c(Cl)cc5[nH]4)nc(N4CCOCC4)nc32)cn1` yielded a % of control of 0.242%.
Consider `N#Cc1cccc(-c2c[nH]c3ncnc(N4CCOCC4)c23)c1`, for which the figures for the % of control in assay [2] and in assay [3] were 64% and 99%, respectively. For the same molecule, the % of inhibition in assay [4] is 6%; in [5] it was -2%.
In assay [6], `CNC(=O)Nc1ccc(-c2nc(N3CC4CCC(C3)O4)c3cnn(C4CCC5(CC4)OCCO5)c3n2)cc1` yielded a % of control of 70%.
In assay [7], `Cc1cc([C@@H](C)Nc2ccccc2C(=O)O)c2nc(N3CCOCC3)cc(=O)n2c1` [AZD-6482] came in with a % of control of 90%.
As for `CC[C@@H]1[C@H](F)C(=O)N[C@@H]1COc1nccc2cc(C(N)=O)c(OC)cc12` [ZIMLOVISERTIB], the % of inhibition in assay [8] was 4.3%; in assay [9] it was -7.4%; in [10], -34.8%.
Turning to `C=CC(=O)Nc1cc(-n2c(=O)ccc3cnc4ccc(-c5ccc(NS(C)(=O)=O)cc5)cc4c32)ccc1C`, the % of control worked out at 97% in assay [11] (at 1 µM), 100% in [11] (at 10 µM), 100% in [12] (at 1 µM) and 69% in [12] (at 10 µM).
`C=CC(=O)Nc1cccc(C(=O)Nc2ccc(Nc3cc(-c4[nH]c(SC)nc4C)ccn3)cc2)c1`: the % of control in assay [13] (at 1 µM) turned out to be 73%; in [13] (at 5 µM), 79%.
`CN(C)C/C=C/C(=O)Nc1ccc(C(=O)N2CCCC(Nc3ncc(Cl)c(-c4c[nH]c5ccccc45)n3)C2)cc1` (centres undefined) registered a % of control in assay [14] of 55%.
In the case of `CCc1cccc(CC)c1NC(=O)c1nn(C)c2c1CCc1cnc(Nc3ccc(C(=O)NC4CCN(C)CC4)cc3OC(F)(F)F)nc1-2`, the IC50 in [15] was greater than 10 µM.
Turning to `CCC(=O)N1CC[C@H](Nc2ncnc3c2CN(c2cnc(OC)c(C(F)(F)F)c2)CC3)C1` [LENIOLISIB], on D(3) dopamine receptor, the IC50 was greater than 30 µM.
In [16], `CN(C)CCOc1ccc(-c2nc(-c3ccncc3)c(-c3ccc4c(c3)CC/C4=N\O)[nH]2)cc1` came in with a % of control of 88%.
As for `O[C@H]1CC[C@H](Nc2ncc3nc(Nc4c(F)cc(F)cc4F)n([C@H]4CCOC4)c3n2)CC1`, the % of control in assay [17] amounted to 7.4%; in assay [18], 72%; in assay [19] it was 85%; in [20], 20%; in assay [21], 17%; in assay [22] it was 100%.
Molecule `CCC(=O)N1CCN(c2ccc(-n3c(=O)ccc4cnc5ccc(-c6cnc7ccccc7c6)cc5c43)cc2C(F)(F)F)CC1` yielded a % of control in assay [23] of 91%.
As for `Cc1cc(C)cc([C@@H]2c3cc(C)ccc3NC(=O)CN2C(=O)c2ccc(Br)s2)c1`, on Histamine H1 receptor, the % of inhibition amounted to 0%.
With `C=CC(=O)Nc1ccc(C(=O)Nc2[nH]nc3c2CN(C(=O)N[C@H](CN(C)C)c2ccccc2)C3(C)C)cc1`, in [24], the % of engagement is 41.8%.

As usually defined, the IC50 is the midpoint of a concentration-inhibition curve.
